Data as given in US10633570B2, “Anti-ice nucleation activator” (THE SCHOOL CORPORATION KANSAI UNIVERSITY, priority 2015, dated 2020).

Key:
Format in all cases: physicochemical
[1] = Anti-ice nucleation active performance (supercooling acceleration), droplet-freezing method of Vali, with silver iodide; conditions: 100 μL mixed with 900 μL silver iodide 1.0 mg/mL, average of three tests; for Anti-ice nucleation activity level (ΔT50 = BlankT50 − SampleT50): purine base aqueous solution 1.0 mg/mL, cooling 1.0° C./min
Method: Nine hundred microliters of an aqueous solution was prepared by dissolving silver iodide (produced by Wako Pure Chemical Industries, Ltd.) in ultra-pure water to a silver iodide concentration of 1.0 mg/mL.
(§1) A blank sample was prepared by mixing 100 μL of ultra-pure water with 900 μL of the aqueous solution in which silver iodide was dissolved.
(§2) The anti-ice nucleation active performance (supercooling acceleration performance) was measured by using the droplet-freezing method of Vali. More specifically, in accordance with the droplet-freezing method of Vali (FIG. 3), an aluminum film was placed on the copper plate of a cold plate chiller (CoolAce CCA-1000, Eyela), and the film was coated with a silicone oil suspension diluted with acetone and chloroform (a solution of acetone:chloroform=1:2). Then, each sample for evaluation or the blank sample was dropped (10 μL each) on 30 points of the surface, the temperature was decreased at a rate of 1.0° C./min, and the temperature at which 50% of the 30 droplets were frozen was considered to be T50.
(§3) The droplet-freezing temperature of each sample was referred to as SampleT50, and the droplet-freezing temperature of the blank sample was referred to as BlankT50. Then, the anti-ice nucleation activity level ΔT50 (° C.) was calculated by the following formula: Formula: ΔT50 (° C.)=BlankT50−SampleT50
Nine hundred microliters of an aqueous solution was prepared by dissolving silver iodide in ultra-pure water to a silver iodide concentration of 1.0 mg/mL.
as §1
(§4) The results are average values of the results of the test performed three times.
as §1, §4

Pseudomonas fluorescens = assay: Anti-ice nucleation active performance, droplet-freezing method of Vali, with Pseudomonas fluorescens as ice nucleation active substance; conditions: Example 1 solution (1.0 mg/mL); Pseudomonas fluorescens in place of silver iodide
Method: The anti-ice nucleation active performance (supercooling acceleration performance) was measured by using the droplet-freezing method of Vali. More specifically, in accordance with the droplet-freezing method of Vali (FIG. 3), an aluminum film was placed on the copper plate of a cold plate chiller (CoolAce CCA-1000, Eyela), and the film was coated with a silicone oil suspension diluted with acetone and chloroform (a solution of acetone:chloroform=1:2). […]
as §3
A sample for evaluation of Example 1 was prepared in a manner similar to that described in Test Example 1, except that Pseudomonas fluorescens, which is the Pseudomonas bacterium, was used in place of silver iodide, which is an ice nucleation active substance. The anti-ice nucleation active performance (supercooling acceleration performance) was measured by using a test method similar to that described in Test Example 1.

[2] = Anti-ice nucleation activity test with respect to biological material (beef liver), droplet-freezing method of Vali; conditions: final concentration 0.1 mg/mL, 10 μL dropped on 1 mm x 1 mm x 1 mm beef liver; blank ultra-pure water; average of three tests
Method: as §2
as §3, with “C.)=BlankT50−SampleT50 […]” for “C.)=BlankT50−SampleT50”
The anti-ice nucleation active performance (supercooling acceleration performance) was measured by using a method similar to the droplet-freezing method of Vali described in Test Example 1. […]

[3] = adenine concentration series 0.1-6.0 (mM) per Example
[4] = polydeoxyadenylic acid with 6, 9 or 12 adenine bases, 1.0 mg/mL in TE buffer

Compound | Anti-ice nucleation activity level (ΔT50) [1, 3] | Anti-ice nucleation activity level (ΔT50 = BlankT50 − SampleT50) [1] | other results
Nc1ncnc2nc[nH]c12 [Example 1, adenine] | 9.2 °C | 9.2 °C | Anti-ice nucleation active performance (ΔT50) (Pseudomonas fluorescens): 1.0 °C; Anti-ice nucleation activity level with respect to beef liver [2]: 0.9 °C
Nc1nc2nc[nH]c2c(=O)[nH]1 [Example 2, Guanine] |  | 1.0 °C | 
O=c1[nH]cnc2nc[nH]c12 [Example 3, Hypoxanthine] |  | 2.1 °C | 
Cn1cnc2c1c(=O)[nH]c(=O)n2C [Example 4, Theobromine] |  | 1.2 °C | 
Cn1c(=O)c2c(ncn2C)n(C)c1=O [Example 5, Caffeine] |  | 1.3 °C | Anti-ice nucleation activity level with respect to beef liver [2]: 0.7 °C
O=c1[nH]c(=O)c2[nH]c(=O)[nH]c2[nH]1 [Example 6, Uric acid] |  | 1.8 °C | 
Cn1c(=O)c2[nH]cnc2n(C)c1=O [Example 7, Theophylline] |  | 2.0 °C | 
Nc1ncnc2nc[nH]c12 [Example 8, adenine] | 1.7 °C |  | 
Nc1ncnc2nc[nH]c12 [Example 9, adenine] | 2.3 °C |  | 
Nc1ncnc2nc[nH]c12 [Example 10, adenine] | 4.3 °C |  | 
Nc1ncnc2nc[nH]c12 [Example 11, adenine] | 4.9 °C |  | 
Nc1ncnc2nc[nH]c12 [Example 12, adenine] | 7.8 °C |  | 
Nc1ncnc2nc[nH]c12 [Example 13, adenine] | 6.7 °C |  | 
Nc1ncnc2nc[nH]c12 [Example 14, adenine] | 7.2 °C |  | 
polydeoxyadenylic acid [Example 15] |  |  | Anti-ice nucleation activity level (ΔT50) [1, 4]: 1.26 °C
polydeoxyadenylic acid [Example 16] |  |  | Anti-ice nucleation activity level (ΔT50) [1, 4]: 1.43 °C
polydeoxyadenylic acid [Example 17] |  |  | Anti-ice nucleation activity level (ΔT50) [1, 4]: 1.60 °C
